Measured values from PubChem BioAssay (NCI).
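A five-concentration, 48-hour dose response in 96-well plates underlies each endpoint, interpolated linearly between surrounding concentrations. GI50 = concentration required for 50% inhibition of growth. TGI is the concentration that stops growth completely.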

Assays:
Assay in all cases: DTP human tumour cell line panel, 48 h
SN12C renal = system: SN12C renal
SK-MEL-5 melanoma = system: SK-MEL-5 melanoma
COLO 205 colon = system: COLO 205 colon
HOP-62 NSCLC = system: HOP-62 NSCLC
MALME-3M melanoma = system: MALME-3M melanoma
NCI-H460 lung = system: NCI-H460 lung
UACC-62 melanoma = system: UACC-62 melanoma
SK-OV-3 ovarian = system: SK-OV-3 ovarian
LOX IMVI melanoma = system: LOX IMVI melanoma
M19-MEL melanoma = system: M19-MEL melanoma
UACC-257 melanoma = system: UACC-257 melanoma
SF-268 CNS = system: SF-268 CNS
HL-60(TB) leukemia = system: HL-60(TB) leukemia
OVCAR-3 ovarian = system: OVCAR-3 ovarian
MOLT-4 leukemia = system: MOLT-4 leukemia
XF 498 CNS = system: XF 498 CNS
CAKI-1 renal = system: CAKI-1 renal
NCI-H23 lung = system: NCI-H23 lung
RPMI-8226 leukemia = system: RPMI-8226 leukemia
LXFL 529 NSCLC = system: LXFL 529 NSCLC
SF-295 CNS = system: SF-295 CNS
SK-MEL-28 melanoma = system: SK-MEL-28 melanoma
HCT-116 colon = system: HCT-116 colon
DMS 273 small cell lung = system: DMS 273 small cell lung
A498 renal = system: A498 renal
RXF 393 renal = system: RXF 393 renal
NCI-H522 lung = system: NCI-H522 lung
KM20L2 colon = system: KM20L2 colon
UO-31 renal = system: UO-31 renal
786-0 renal = system: 786-0 renal
IGROV1 ovarian = system: IGROV1 ovarian
HCC-2998 colon = system: HCC-2998 colon
SNB-19 CNS = system: SNB-19 CNS
ACHN renal = system: ACHN renal
HCT-15 colon = system: HCT-15 colon
A549 NSCLC = system: A549 NSCLC
CCRF-CEM leukemia = system: CCRF-CEM leukemia
DMS 114 small cell lung = system: DMS 114 small cell lung
EKVX NSCLC = system: EKVX NSCLC
U251 CNS = system: U251 CNS
HT29 colon = system: HT29 colon
OVCAR-8 ovarian = system: OVCAR-8 ovarian
SR leukemia = system: SR leukemia
SK-MEL-2 melanoma = system: SK-MEL-2 melanoma
K-562 leukemia = system: K-562 leukemia
TK-10 renal = system: TK-10 renal
SW-620 colon = system: SW-620 colon
OVCAR-4 ovarian = system: OVCAR-4 ovarian
KM12 colon = system: KM12 colon
DLD-1 colon = system: DLD-1 colon
M14 melanoma = system: M14 melanoma
HOP-92 NSCLC = system: HOP-92 NSCLC
NCI/ADR-RES ovarian = system: NCI/ADR-RES ovarian
SF-539 CNS = system: SF-539 CNS
HS 578T breast = system: HS 578T breast
BT-549 breast = system: BT-549 breast
PC-3 prostate = system: PC-3 prostate
SNB-75 CNS = system: SNB-75 CNS
T-47D breast = system: T-47D breast
DU-145 prostate = system: DU-145 prostate
NCI-H226 lung = system: NCI-H226 lung
MDA-MB-435 = system: MDA-MB-435
OVCAR-5 ovarian = system: OVCAR-5 ovarian
MDA-N = system: MDA-N
MCF7 breast = system: MCF7 breast
MDA-MB-231 breast = system: MDA-MB-231 breast

CC(C)=[CH][Sb]([Br])([CH]=C(C)C)([CH]=C(C)C)[CH]=C(C)C
GI50 (SN12C renal): 24.7 µM
TGI (SN12C renal): > 100 µM
GI50 (SK-MEL-5 melanoma): 3.82 µM
TGI (SK-MEL-5 melanoma): 24.3 µM
GI50 (COLO 205 colon): 1.93 µM
TGI (COLO 205 colon): 5.89 µM
GI50 (HOP-62 NSCLC): 40.3 µM
TGI (HOP-62 NSCLC): > 100 µM
GI50 (MALME-3M melanoma): 5.28 µM
TGI (MALME-3M melanoma): > 100 µM
GI50 (NCI-H460 lung): 16.4 µM
TGI (NCI-H460 lung): 54.4 µM
GI50 (UACC-62 melanoma): 11.1 µM
TGI (UACC-62 melanoma): > 100 µM
GI50 (SK-OV-3 ovarian): 2.5 µM
TGI (SK-OV-3 ovarian): 8.83 µM
GI50 (LOX IMVI melanoma): 31.6 µM
TGI (LOX IMVI melanoma): > 100 µM
GI50 (M19-MEL melanoma): 6.14 µM
TGI (M19-MEL melanoma): > 100 µM
GI50 (UACC-257 melanoma): 4.87 µM
TGI (UACC-257 melanoma): > 100 µM
GI50 (SF-268 CNS): 11.7 µM
TGI (SF-268 CNS): 74.5 µM
GI50 (HL-60(TB) leukemia): 1.88 µM
TGI (HL-60(TB) leukemia): 24.3 µM
GI50 (OVCAR-3 ovarian): 2.44 µM
TGI (OVCAR-3 ovarian): 59.8 µM
GI50 (MOLT-4 leukemia): 18.8 µM
TGI (MOLT-4 leukemia): > 100 µM
GI50 (XF 498 CNS): 16.4 µM
TGI (XF 498 CNS): > 100 µM
GI50 (CAKI-1 renal): 46.1 µM
TGI (CAKI-1 renal): > 100 µM
GI50 (NCI-H23 lung): 6.12 µM
TGI (NCI-H23 lung): 46.7 µM
GI50 (RPMI-8226 leukemia): 0.781 µM
TGI (RPMI-8226 leukemia): 38.4 µM
GI50 (LXFL 529 NSCLC): 6.58 µM
TGI (LXFL 529 NSCLC): > 100 µM
GI50 (SF-295 CNS): 17.3 µM
TGI (SF-295 CNS): 53.4 µM
GI50 (SK-MEL-28 melanoma): 11.3 µM
TGI (SK-MEL-28 melanoma): > 100 µM
GI50 (HCT-116 colon): 13.9 µM
TGI (HCT-116 colon): 60.4 µM
GI50 (DMS 273 small cell lung): 5.98 µM
TGI (DMS 273 small cell lung): 56.8 µM
GI50 (A498 renal): 41 µM
TGI (A498 renal): > 100 µM
GI50 (RXF 393 renal): 21.2 µM
TGI (RXF 393 renal): 81.1 µM
GI50 (NCI-H522 lung): 1.5 µM
TGI (NCI-H522 lung): 20.2 µM
GI50 (KM20L2 colon): 13.1 µM
TGI (KM20L2 colon): > 100 µM
GI50 (UO-31 renal): 35.4 µM
TGI (UO-31 renal): > 100 µM
GI50 (786-0 renal): 34.4 µM
TGI (786-0 renal): > 100 µM
GI50 (IGROV1 ovarian): 5.57 µM
TGI (IGROV1 ovarian): 66.3 µM
GI50 (HCC-2998 colon): 26 µM
TGI (HCC-2998 colon): > 100 µM
GI50 (SNB-19 CNS): 14.7 µM
TGI (SNB-19 CNS): 89.4 µM
GI50 (ACHN renal): 28.8 µM
TGI (ACHN renal): > 100 µM
GI50 (HCT-15 colon): > 100 µM
TGI (HCT-15 colon): > 100 µM
GI50 (A549 NSCLC): 19.1 µM
TGI (A549 NSCLC): > 100 µM
GI50 (CCRF-CEM leukemia): 4.8 µM
TGI (CCRF-CEM leukemia): > 100 µM
GI50 (DMS 114 small cell lung): 1.61 µM
TGI (DMS 114 small cell lung): 4.85 µM
GI50 (EKVX NSCLC): 4.88 µM
TGI (EKVX NSCLC): 88.6 µM
GI50 (U251 CNS): 12.2 µM
TGI (U251 CNS): 79.3 µM
GI50 (HT29 colon): 15.1 µM
TGI (HT29 colon): > 100 µM
GI50 (OVCAR-8 ovarian): 23 µM
TGI (OVCAR-8 ovarian): > 100 µM
GI50 (SR leukemia): 10.9 µM
TGI (SR leukemia): > 100 µM
GI50 (SK-MEL-2 melanoma): 15.4 µM
TGI (SK-MEL-2 melanoma): > 100 µM
GI50 (K-562 leukemia): 6.7 µM
TGI (K-562 leukemia): > 100 µM
GI50 (TK-10 renal): 34.9 µM
TGI (TK-10 renal): > 100 µM
GI50 (SW-620 colon): 26.4 µM
TGI (SW-620 colon): > 100 µM
GI50 (OVCAR-4 ovarian): 22.7 µM
TGI (OVCAR-4 ovarian): > 100 µM
GI50 (KM12 colon): 3.63 µM
TGI (KM12 colon): 87.9 µM
GI50 (DLD-1 colon): 37.3 µM
TGI (DLD-1 colon): > 100 µM
GI50 (M14 melanoma): 10.1 µM
TGI (M14 melanoma): 37.8 µM

CC(C)NC(=O)OCc1c(COC(=O)NC(C)C)c(-c2ccc[n+](COC(=O)CC(C)(C)C)c2)n2c1CCC2
TGI (SN12C renal): > 100 µM
TGI (HOP-92 NSCLC): > 100 µM
TGI (SK-MEL-5 melanoma): > 100 µM
TGI (COLO 205 colon): > 100 µM
TGI (HOP-62 NSCLC): > 100 µM
TGI (MALME-3M melanoma): > 100 µM
TGI (NCI-H460 lung): > 100 µM
TGI (NCI/ADR-RES ovarian): > 100 µM
TGI (UACC-62 melanoma): > 100 µM
TGI (SK-OV-3 ovarian): > 100 µM
TGI (LOX IMVI melanoma): > 100 µM
TGI (SF-539 CNS): > 100 µM
TGI (UACC-257 melanoma): > 100 µM
TGI (SF-268 CNS): > 100 µM
TGI (HS 578T breast): > 100 µM
TGI (HL-60(TB) leukemia): > 100 µM
TGI (OVCAR-3 ovarian): > 100 µM
TGI (MOLT-4 leukemia): > 100 µM
TGI (CAKI-1 renal): > 100 µM
TGI (NCI-H23 lung): > 100 µM
TGI (BT-549 breast): > 100 µM
TGI (RPMI-8226 leukemia): > 100 µM
TGI (PC-3 prostate): > 100 µM
TGI (SF-295 CNS): > 100 µM
TGI (SK-MEL-28 melanoma): > 100 µM
TGI (HCT-116 colon): > 100 µM
TGI (A498 renal): > 100 µM
TGI (RXF 393 renal): > 100 µM
TGI (NCI-H522 lung): > 100 µM
TGI (SNB-75 CNS): > 100 µM
TGI (T-47D breast): > 100 µM
TGI (UO-31 renal): > 100 µM
TGI (786-0 renal): > 100 µM
TGI (IGROV1 ovarian): > 100 µM
TGI (HCC-2998 colon): > 100 µM
TGI (SNB-19 CNS): > 100 µM
TGI (ACHN renal): > 100 µM
TGI (DU-145 prostate): > 100 µM
TGI (HCT-15 colon): > 100 µM
TGI (A549 NSCLC): > 100 µM
TGI (CCRF-CEM leukemia): > 100 µM
TGI (EKVX NSCLC): > 100 µM
TGI (NCI-H226 lung): > 100 µM
TGI (U251 CNS): > 100 µM
TGI (HT29 colon): > 100 µM
TGI (OVCAR-8 ovarian): > 100 µM
TGI (MDA-MB-435): > 100 µM
TGI (OVCAR-5 ovarian): > 100 µM
TGI (SR leukemia): > 100 µM
TGI (SK-MEL-2 melanoma): > 100 µM
TGI (K-562 leukemia): > 100 µM
TGI (TK-10 renal): > 100 µM
TGI (MDA-N): > 100 µM
TGI (SW-620 colon): > 100 µM
TGI (OVCAR-4 ovarian): > 100 µM
TGI (MCF7 breast): > 100 µM
TGI (MDA-MB-231 breast): > 100 µM
TGI (KM12 colon): > 100 µM
TGI (M14 melanoma): > 100 µM
